How the values were obtained:
[1] = tested on: MAT2A; test: Intestinal MAT2A expression in mice given SAMe or MTA in drinking water; assay type: in vivo
Protocol: FIG. 30. Effects of oral SAMe and MTA on colonic mRNA levels of MAT2A, MAT2 β, and cFLIPL. Mice were fed SAMe (150 to 450 mg/kg/d) or MTA (75 or 150 mg/kg/d) in drinking water for 6 days. Colonic mucosa was scrapped off and gene expression measured by real-time PCR.
Three-month old male C57/B6 mice were fed ad libitum a standard diet (Harland Tekiad irradiated mouse diet 7912, Madison, Wis.), caged individually and had free access to water supplemented with SAMe ([…]), MTA (75 mg/kg/d), phosphate buffered saline (vehicle for SAMe) or DMSO (0.2%, vehicle for MTA) for 6 days. SAMe and MTA were made fresh daily. The amount of water intake, body weight, and animal behavior were closely monitored. After 6 days, animals were sacrificed, intestine was cut open along the longitudinal axis, and mucosa was stripped from the intestine (46). Mucosa was weighed and a portion processed for SAMe measurement as described below, the rest snap frozen for subsequent RNA extraction.
(§1) Total RNA was isolated by the EZgeno total RNA isolation kit (Genemega, San Giego, Calif.), and subjected to reverse transcription (RT) by using M-MLV Reverse transcriptase (Invitrogen). 2 μl of RT product was subjected to quantitative real-time PCR analysis. The primers and TaqMan probes for MAT2A, MAT2β and Universal PCR Master Mix were purchased from ABI (Foster City, Calif.). Hypoxanthine phosphoribosyl-transferase 1 (HPRT1) and ubiquitin C (UBC) were used as housekeeping genes (48). The thermal profile consisted of 1 cycle at 95° C. for 15 minutes followed by 40 cycles at 95° C. for 15 seconds and at 60° C. for 1 minute. The expression of MAT2A and MAT2β was checked by normalizing the Ct of MAT2A and MAT2β to that of the control housekeeping gene (HPRT1 or UBC) (49). The delta Ct obtained was used to find the relative expression of MAT genes according to the formula: Relative expression=2·^ΔCt, where ΔCt=ΔCt of MAT genes in colon cancer or treated cells—ΔCt of MAT genes in normal colon or control cells.

[2] = tested on: HT-29 cells; test: Cellular SAMe and MTA levels in HT-29 cells; assay type: cell-based, human
Protocol: HT-29 and RKO cells were obtained from the Cell Culture Core of the USC Liver Disease Research Center and grown according to instructions provided by the American Type Culture Collection (ATCC, Rockville, Md.). Prior to treatment with growth factors, SAMe or MTA, medium was changed to 0.1% FBS overnight.
Cellular SAMe and MTA levels were measured (51) and polyamine levels were determined (52).

[3] = tested on: HT-29 cells; test: Cell growth by MTT assay in HT-29 cells; assay type: cell-based, human
Protocol: Cell growth was measured by the cell growth determination kit MTT from Sigma (St. Louis, Mo.). The MTT assay measures the cell proliferation rate and reduction in cell viability. HT-29 or RKO cells (1×10^4/well) were plated in 96-well plates and treated with growth factors (all 100 ng/ml), SAMe (0.5 to 5 mM), MTA (0.5 to 1 mM), alone or in combination for 16 hrs in serum-free medium. To determine the effect of MAT2A RNAi on mitogen-induced changes in MTT, cells were first treated with RNAi for 48 hrs followed by mitogen treatment for another 24 hrs.

[4] = tested on: human MAT2A promoter; test: Luciferase activity driven by the human MAT2A promoter in HT-29 cells; assay type: cell-based; settings: SAMe 5 mM or MTA 1 mM, 6 hrs
Protocol: (§2) The human MAT2A promoter construct[…] and GSS promoter construct −1686/−46-LUC were previously described (33, 34, 50), and subcloned in the sense orientation upstream of the luciferase coding sequence of the pGL-3 enhancer vector (Promega). Both promoter constructs contain maximal promoter activity.
To study the effect of mitogens on human MAT2A promoter activity in HT-29 cells, HT-29 cells (5×10^5 cells in 2 ml serum-free medium) were transiently transfected with 2 μg MAT2A promoter firefly luciferase gene construct or promoterless pGL3-enhancer vector (as negative control) using the Superfect Transfection Reagent (Qiagen, Valencia, Calif.) (34). To control for transfection efficiency, cells were co-transfected with the Renilla phRL-TK vector (Promega, Madison, Wis.). […] The luciferase activity driven by the MAT2A promoter construct was normalized to Renilla luciferase activity. Each experiment was done with triplicate samples.

[5] = tested on: MAT2A; test: MAT2A expression in NCM460 cells; assay type: cell-based, human; settings: 5 mM SAMe or 1 mM MTA, 6 hrs
Protocol: as §1
NCM460 cell line was originally established in 1996 as the first non-malignant colonic epithelial cell line derived from the transverse colon (43). When first developed, cells formed both monolayer and in suspension, express villin and cytokeratin staining (43). […] The NCM460 cells in monolayer have features of transverse colon crypt cells (69). […]

[6] = tested on: NCM460 cells; test: Toxicity and apoptosis in NCM460 normal colonic epithelial cells; assay type: cell-based, human
Protocol: In these experiments the total treatment duration was limited to 16 hrs to avoid the apoptotic effect. […] Apoptosis was measured by Hoechst staining or Annexin V and propidium iodide staining on flow cytometry.

[7] = tested on: human GSS promoter; test: Human GSS promoter activity in HT-29 cells; assay type: cell-based; settings: SAMe or MTA treatment as for MAT2A promoter
Excerpt: as §2, with “activity. Specificity of SAMe and MTA on promoter activity was examined by transfecting HT-29 cells with the GSS promoter construct and treating cells with SAMe or MTA as above.” for “activity.”

[8] = tested on: SPD syn; test: SPD syn expression by real-time PCR in HT-29 cells; assay type: cell-based, human; settings: 6 hrs
[9] = 75 mg/kg/d in drinking water, six days
[10] = 150 mg/kg/d in drinking water, six days

Question: Which results are given for C[S+](CC[C@H](N)C(=O)O)C[C@H]1O[C@@H](n2cnc3c(N)ncnc32)[C@H](O)[C@@H]1O (stereo partly shown) [SAMe, S-adenosylmethionine]?
Answer: MAT2A expression, colon [1, 9]: 128 ± 20 % of control MAT2A mRNA levels; MAT2A expression, proximal small intestine [1, 9]: 99 ± 2 % of control MAT2A mRNA levels; MAT2A expression, colon [1, 10]: 85 ± 10 % of control MAT2A mRNA levels; MAT2A expression, proximal small intestine [1, 10]: 81 ± 4 % of control MAT2A mRNA levels; decrease of MAT2A expression in proximal small intestine ([1]; SAMe 150 mg/kg/d, MTA 75 mg/kg/d, six days): 20%; inhibition in colonic MAT2A mRNA level ([1]; SAMe 450 mg/kg/d (highest dose), 6 days): 75%; increase of intracellular MTA levels after SAMe treatment ([2]; 5 mM SAMe for 16 hrs): 19 fold; intracellular MTA levels after SAMe treatment ([2]; 5 mM SAMe for 16 hrs): 1,906%; MTA level ([2]; 6 hrs, SAMe 2 mM): 0.192 ± 0.036 nmol/mg protein; SAMe level ([2]; 6 hrs, SAMe 2 mM): 1.44 ± 0.13 nmol/mg protein; MTA level ([2]; 6 hrs, SAMe 5 mM): 0.354 ± 0.096 nmol/mg protein; SAMe level ([2]; 6 hrs, SAMe 5 mM): 2.19 ± 0.21 nmol/mg protein; MTA level ([2]; 16 hrs, SAMe 2 mM): 0.261 ± 0.035 nmol/mg protein; SAMe level ([2]; 16 hrs, SAMe 2 mM): 1.28 ± 0.01 nmol/mg protein; MTA level ([2]; 16 hrs, SAMe 5 mM): 0.934 ± 0.105 nmol/mg protein; SAMe level ([2]; 16 hrs, SAMe 5 mM): 1.83 ± 0.01 nmol/mg protein; growth ([3]; SAMe 5 mM, 24 hr): 71 % of control; growth, agent alone ([3]; SAMe 0.5 to 5 mM, MTA 0.5 to 1 mM, 16 hrs): no effect on growth; mitogenic action of leptin, EGF and IGF-1 ([3]; SAMe 0.5 to 5 mM, MTA 0.5 to 1 mM, 16 hrs, with growth factors): blocked the mitogenic action; human MAT2A promoter activity [4]: lower the promoter activity; reduction of MAT2A expression [5]: 40%; menadione (MQ)-induced toxicity in NCM460 cells [6]: protected against menadione (MQ)-induced toxicity; human GSS promoter activity [7]: no influence on the human GSS promoter activity; SPD syn expression ([8]; SAMe 2 mM): 1.1 ± 0.02 fold of control; SPD syn expression ([8]; SAMe 5 mM): 0.8 ± 0.02 fold of control

From patent US20100166727A1, “S-Adenosylmethionine And Methylthioadensosine In Chemoprevention And Treatment Of Colon Polyps And Cancer” (UNIVERSITY OF SOUTHERN CALIFORNIA, priority 2007, published 2010)
